Patent US20240122954A1 (YEP BIO CO. LTD., priority 2021, published 2024)

Assays:
[1] = tested on: BV2 cells, a microglia cell line; experiment: Inhibition of LPS-induced microglia activity (cell number, Iba1 fluorescence intensity); assay type: cell-based; conditions: for fluorescence intensity of Iba1 (FIG. 8) / number of cells (FIG. 8): LPS-treated microglia, 24 hours
Method: (§1) BV2 cells were cultured in high glucose DMEM medium containing 10% FBS and penicillin-streptomycin solution (5000 units/ml penicillin, 5 mg/ml streptomycin, Corning, USA) in a cell incubator at 37° C. in 5% CO2, which was used by subculturing three times a week therein.
(§2) Cultured BV2 cells were harvested using 0.1% trypsin to obtain a population, and cultured in 96-well plates pre-coated with Poly-D-Lysine (Sigma).
BV2 cells, a microglia cell line, were treated with LPS to induce microglia activation and inflammation, and eleutheroside B was treated at a concentration of 1 mM to 0.1 nM. The proliferation number and morphology changes after 24 hours of eleutheroside B treatment were quantified, and the activity level of microglial cells was verified by the fluorescence intensity of Iba1 (FIG. 6).
In order to confirm the regulation of the inflammatory response through the inhibition of microglia activity by eleutheroside B in a more precise way, high content imaging was analyzed by classifying into the number of proliferated cells and the fluorescence intensity of Iba1, and the results are shown in FIG. 8.

microglia = experiment: Cytokine secretion of LPS-treated microglia (multiplexing of conditioned media); assay type: cell-based; conditions: conditioned media after 24 hours
astrocytes [2] = experiment: Cytokine secretion of LPS-treated astrocytes (multiplexing of conditioned media); assay type: cell-based, rats; conditions: conditioned media after 24 hours
Method: In order to more accurately study the above effect, the secretion of cytokines was observed simultaneously with the effect of inhibiting the activity of astrocytes. After 24 hours of treatment with LPS and drugs, conditioned media were collected and changes in pro-inflammatory cytokines (TNFα) and anti-inflammatory cytokines (IL-10) were examined.

Neuro-2a = experiment: Neuronal differentiation marker analysis by qPCR in neuroblast cell line; assay type: cell-based; conditions: compared to the control
Method: (§3) B6;SJL-Tg(APPSWE)2576Kha, a genetically modified mouse for […], was used as an in-vitro brain disease model. Neural stem cells were isolated from subventricular zone (SVZ) tissues of transgenic newborn mice and neurospheres were cultured. In addition, neurosphere cells were induced to attach to the bottom with 5% FBS+F12/DMEM medium for 48 hours, and to observe differentiation potential, eleutheroside B in 5% BS+F12/DMEM medium was added to the cells, and neurite activity was observed under a microscope. In addition, the neuronal cell differentiation potential using the Neuro-2a cell line, which is a neuroblast, was confirmed. To confirm differentiation, neural differentiation markers such as DCX, Tuj1, neuroD, and NeuN were confirmed by qPCR.
In order to examine this at a molecular level, RNA analysis of neuronal differentiation markers (Sox2, Nestin, NeuroD, DCX, Tuj-1, NeuN) was performed, and the results are shown in FIG. 11.
When confirming the neuronal differentiation marker, a neuroblast cell line, Neuro-2a was used, and the differentiation was confirmed by qPCR to observe if the amoeba-type metaphase cells were differentiated into neurons by the drug.

BV2 cells [3] = conditions: according to the report; cited from earlier work
BV2 cells [4] = experiment: Cytotoxicity of eleutheroside B to microglia (CCK-8/WST-8 survival rate); assay type: cell-based; conditions: 24 hours, mean±standard deviation
Method: as §1, §2
In order to check the cytotoxicity of eleutheroside B, BV2 cells (3×10^5 cells/well) were cultured in a 96-well culture plate for 24 hours, and then treated with various concentrations of eleutheroside B, followed by incubation for 24 hours. After 24 hours, the medium was removed and WST-8 [2-(2-methoxy-4-nitrophenyl)-3-(4-nitrophenyl)-5-(2,4-disulfophenyl)-2H-tetrazolium (Cell Counting Kit-8 (CCK-8), dojindo)] was added at a concentration of 100 uL/mL to induce a reduction reaction while incubating for 1 hour, and then absorbance (450 nm) was measured. Cell viability (%) (viability (%)=(treated group−negative control)/(positive control−negative control)×100) was calculated using the eleutheroside B treated group and the untreated control group.

neural stem cells = experiment: Neurite activity from neural stem cells of B6;SJL-Tg(APPSWE)2576Kha transgenic mice; assay type: cell-based; conditions: 0.01 pg/mL and 1 pg/mL, compared to the control group
Method: as §3
In order to confirm the activity of neurite from neural stem cells according to eleutheroside B treatment, B6;SJL-Tg(APPSWE)2576Kha, a genetically modified mouse for degenerative brain disease, was used as an in-vitro brain disease model. Neural stem cells were isolated from the subventricular zone (SVZ) tissue of genetically modified newborn mice, and the number of cells to be used in the experiment was secured through neurosphere culture. […]

microglia (Iba 1) = experiment: Brain immunohistochemistry of microglia activity (Iba 1) in hippocampus of 5×FAD; assay type: in vivo, mouse; conditions: 50 or 150 mg/kg intraperitoneally twice a week
Method: (§4) In 5×FAD, an animal model of Alzheimer's disease, amyloid protein is deposited from 2.5 months and cognitive function is impaired from 6 months. Accordingly, eleutheroside B (vehicle, 50 or 150 mg/kg) was intraperitoneally administered twice a week from 4 months, and working memory ability was measured at 6 months when cognitive function was impaired. The experimental groups were 3 animals each of WT+vehicle, TG+vehicle, TG+50 mg/kg (TG_E.B(L)), and TG+150 mg/kg (TG_E.B(H)) of the same age as TG. Working memory ability was measured with Y-maze, and pre-adaptation training for the maze was performed the day before the maze experiment.
(§5) In order to confine the pathological changes related to cognitive improvement, blood was removed by perfusion through the heart. The blood-free brain was fixed in 4% paraformaldehyde for one day, then made into a paraffin block and fabricated into 4 μm tissue sections for histological staining. The activities of astrocytes (GFAP) and microglia (Iba 1) were measured by confocal microscopy in the dentate gyrus, CA1, and CA3 regions of the hippocampus and the entorhinal cortex, which are major damaged areas in Alzheimer's disease.

astrocytes (GFAP) = experiment: Brain immunohistochemistry of astrocyte activity (GFAP) in hippocampus of 5×FAD; assay type: in vivo, mouse; conditions: 50 or 150 mg/kg intraperitoneally twice a week
Method: as §4, §5

5×FAD = experiment: Working memory ability (Y-maze) in 5×FAD Alzheimer's disease animal model; assay type: in vivo, mouse; conditions: 50 or 150 mg/kg intraperitoneally twice a week from 4 months, measured at 6 months
Method: as §4
Working memory performance was performed by sequentially moving through three passages for 8 minutes in a Y-shaped maze to check whether the movement to the previous passage was remembered, and the degree of cognitive impairment was confirmed by calculating the ratio of sequentially crossing the three passages.

astrocytes [5] = experiment: Inhibition of LPS-induced astrocyte activity (cell number, cell area, GFAP intensity; high content imaging); assay type: cell-based, rats; conditions: LPS-activated astrocytes
Method: The brains of 1-2 day old rats were excised, separated from the cerebral cortex, and cultured. That is, the […] cortex was divided into single cells in high-glucose DMEM medium containing 10% FBS and penicillin-streptomycin solution (5000 units/ml penicillin, 5 mg/ml streptomycin, Corning, USA), and cultured in a 75-cm2T flask. (0.5 hemispheres/flask) in a cell incubator at 5% CO2 and 37° C.
After 1 week of culture, microglia were removed by shaking at 250 rpm for 4 hours, and the cultured astrocytes were harvested using 0.1% trypsin to obtain an astrocyte population. Astrocytes were cultured in 6-well plates previously coated with Poly-D-Lysine (Sigma).
Astrocytes were used after primary culture was isolated from the brain of pup within 1 to 3 days after birth, and the separated astrocytes were treated with LPS at expressing the lowest concentration of IL-6. The drug treatment was performed simultaneously with LPS, and the activity of astrocytes was evaluated through the number of proliferated cells and changes in morphology (FIG. 2).

[6] = 1-10 nM drug, compared to LPS activity

Compound: COc1cc2c(cc1OC)C(=O)C(CC1CCN(Cc3ccccc3)CC1)C2 (centres unmarked) [donepezil, reference compound]
- fluorescence intensity of Iba1 (FIG. 8) [1]: relatively less microglial activity inhibition pattern than eleutheroside B
- number of cells (FIG. 8) [1]: inhibiting microglia apoptosis
- anti-inflammatory cytokine IL-10 secretion (microglia): does not affect cytokine secretion
- pro-inflammatory cytokine TNF-α secretion (microglia): does not affect cytokine secretion
- anti-inflammatory cytokine IL-10 secretion (astrocytes [2]): did not affect cytokine secretion
- pro-inflammatory cytokine TNF-α secretion (astrocytes [2]): did not affect cytokine secretion

Compound: COc1cc(/C=C/CO)cc(OC)c1O[C@@H]1O[C@H](CO)[C@@H](O)[C@H](O)[C@H]1O [eleutheroside B]
- DCX (differentiation marker) (Neuro-2a): slight increase
- Tuj1 (differentiation marker) (Neuro-2a): slight increase
- nestine (expansion phase marker) (Neuro-2a): significant increase
- neuN (integration phase marker) (Neuro-2a): significant increase
- neuroD (differentiation phase marker) (Neuro-2a): significant increase
- sox2 (expansion phase marker) (Neuro-2a): significant increase
- Iba1 fluorescence intensity (FIG. 7) ([1]; LPS-activated microglia, 10 nM): reduced to almost the same intensity as that of the control
- fluorescence intensity of Iba1 (FIG. 8) [1]: decrease
- number of cells (FIG. 8) [1]: increased
- concentration at which cytotoxicity was reported (BV2 cells [3]): 40 µM
- survival rate (BV2 cells [4]; 20 uM): 92±13.3%
- survival rate (BV2 cells [4]; 40 uM): 88±24.8%
- anti-inflammatory cytokine IL-10 secretion (microglia): increased
- pro-inflammatory cytokine TNF-α secretion (microglia): significant decrease in the pro-inflammatory cytokine TNF-α was not confirmed
- neurites (FIG. 10) (neural stem cells): showed an increase in neurites
- fluorescence intensity of Iba 1 in hippocampus (FIG. 16) (microglia (Iba 1)): lower than that of the Alzheimer's disease animal model
- microglia / inflammation in CA1 of the hippocampus (FIG. 18) (microglia (Iba 1)): greatly reduced almost as in the normal state
- inflammation / activity of microglial cells in all areas of the hippocampus (FIG. 17) (microglia (Iba 1); compared to the Alzheimer's disease animal model): suppressed
- activity of astrocytes / inflammation in CA1 of the hippocampus (FIG. 15) (astrocytes (GFAP)): greatly reduced
- working memory ability (Y-maze) (5×FAD): almost the same remarkable cognitive ability improvement as the control group
- anti-inflammatory cytokine IL-10 secretion (astrocytes [2]): increased
- pro-inflammatory cytokine TNF-α secretion (astrocytes [2]): decreased
- GFAP fluorescence intensity (FIG. 3) (astrocytes [5]; 0.01 pg of eleutheroside B): reduced to almost the same intensity as the control
- cell area (FIG. 4) (astrocytes [5]; [6]): reduced
- intensity of GFAP (FIG. 4) (astrocytes [5]; [6]): reduced
- number of proliferated cells (FIG. 4) (astrocytes [5]; [6]): showed cell proliferation compared to LPS activity
